Test results published in publication PMC6982876, “Synthesis of Novel Benzodifuranyl; 1,3,5-Triazines; 1,3,5-Oxadiazepines; and Thiazolopyrimidines Derived from Visnaginone and Khellinone as Anti-Inflammatory and Analgesic Agents” (Molecules, 2020).
pIC50: −log10 of the molar value. Marks after values point to notes of the source that are not given here.

How the values were obtained:
[1] = target: T1, ovine COX-1 (Ovis aries, UniProt P05979); assay: In vitro COX inhibitor screening assay (EIA kit, Cayman), COX-1; format: biochemical; settings: mean of two determinations, enzyme kit, read-out: COX1 IC50
T1 construct: purchased Cayman Chemical, Ann Arbor, MI, USA 560131
T1 sequence (P05979 25-600): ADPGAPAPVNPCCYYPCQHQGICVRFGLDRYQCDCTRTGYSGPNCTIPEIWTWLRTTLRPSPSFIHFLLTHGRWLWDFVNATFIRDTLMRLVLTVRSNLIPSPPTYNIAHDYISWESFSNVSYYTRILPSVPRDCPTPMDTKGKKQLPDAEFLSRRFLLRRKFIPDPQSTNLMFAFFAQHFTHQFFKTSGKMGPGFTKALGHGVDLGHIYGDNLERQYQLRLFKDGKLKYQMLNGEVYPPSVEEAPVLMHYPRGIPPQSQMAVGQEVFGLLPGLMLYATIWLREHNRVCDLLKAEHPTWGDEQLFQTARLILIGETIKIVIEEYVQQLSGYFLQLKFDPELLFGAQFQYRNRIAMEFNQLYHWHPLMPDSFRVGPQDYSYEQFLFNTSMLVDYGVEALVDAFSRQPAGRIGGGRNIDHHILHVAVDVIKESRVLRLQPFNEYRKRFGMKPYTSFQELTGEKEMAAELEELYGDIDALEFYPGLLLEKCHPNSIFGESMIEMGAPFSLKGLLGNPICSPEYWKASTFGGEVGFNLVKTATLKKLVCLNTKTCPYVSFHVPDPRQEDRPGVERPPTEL
Description: (§1) Furthermore, the selectivity index for COX-2 (COX-1 IC50 / COX-2 IC50) was calculated for the compounds.

[2] = target: T2, human recombinant COX-2 (Homo sapiens, UniProt P35354); assay: In vitro COX inhibitor screening assay (EIA kit, Cayman), COX-2; format: biochemical
T2 construct: purchased Cayman Chemical, Ann Arbor, MI, USA 560131
T2 sequence (P35354 18-604): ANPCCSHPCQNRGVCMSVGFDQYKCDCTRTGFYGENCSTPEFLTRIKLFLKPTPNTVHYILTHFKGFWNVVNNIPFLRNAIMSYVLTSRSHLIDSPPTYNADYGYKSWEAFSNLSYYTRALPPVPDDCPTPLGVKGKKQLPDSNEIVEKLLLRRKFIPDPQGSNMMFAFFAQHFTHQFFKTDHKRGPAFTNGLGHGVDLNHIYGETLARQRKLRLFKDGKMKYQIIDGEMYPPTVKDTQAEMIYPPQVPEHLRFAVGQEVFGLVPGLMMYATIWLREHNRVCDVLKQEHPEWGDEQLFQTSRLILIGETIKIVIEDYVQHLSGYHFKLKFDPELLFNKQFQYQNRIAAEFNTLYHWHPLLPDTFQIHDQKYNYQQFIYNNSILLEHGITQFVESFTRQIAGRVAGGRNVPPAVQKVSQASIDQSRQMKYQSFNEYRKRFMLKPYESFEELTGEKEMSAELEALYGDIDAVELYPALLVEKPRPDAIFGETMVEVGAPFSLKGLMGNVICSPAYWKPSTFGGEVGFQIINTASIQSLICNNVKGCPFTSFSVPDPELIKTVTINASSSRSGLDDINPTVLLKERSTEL
Description: as §1

[3] = system: acetic acid-induced writhing in mice; assay: Acetic acid-induced writhing test (analgesic activity); format: in vivo; settings: 10 mg/kg p.o., n = 5
Procedure, shortened: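 Mice of 25–30 g, fasted 8 h, given compound at 10 mg/kg p.o., five animals per group. One hour later, 1% acetic acid i.p. (0.1 mL/10 g); writhes counted over 20 min. Percent protection calculated against the saline control group.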

[4] = system: carrageenan-induced paw edema in rats; assay: Carrageenan-induced paw edema (anti-inflammatory activity); format: in vivo; settings: 10 mg/kg oral; for % Change in Paw Height (Mean ± SEM): n = 5
Procedure, shortened: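 Albino rats weighing 150–180 g, in groups of five, received test compounds orally at 10 mg/kg; one hour later 0.1 mL of 1% carrageenan was injected into the left hind paw. Paw inflammation height was measured by digital caliber plethysmometer at 0, 1, 2 and 3 h, expressed as percentage increase relative to the uninjected right paw, with percentage edema inhibition versus control calculated at 3 h.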

[5] = system: interleukin-1 beta (IL-1 β); assay: ELISA of serum interleukin-1 beta after paw edema test; format: in vivo, rats; settings: rat serum at the end of the paw edema test, mean ± SEM, n = 5
Description: IL1 is one of the important inflammatory mediators and is used to confirm the anti-inflammatory activities of new anti-inflammatory compounds. At the end of the paw edema test, blood samples were collected from the orbital axis of the eye under light ether anesthesia. Sera were separated after centrifugation of blood at 5000 rpm for 15 min; the sera were stored at –80 °C until the ELISA assay was performed according to the manufacturer instructions.

With `COc1c2ccoc2cc2oc(C(=Nc3cc(N4CCOCC4)nc(N4CCOCC4)n3)N3CCOCC3)c(C)c12` [Compound 10b, N-(2,6-dimorpholinopyrimidin-4-yl)-1-(4-methoxy-3-methylbenzo [1,2-b: 5,4-b`]difuran-2-yl)-1-morpholinomethanimine] the melting point was greater than 350 °C, the pIC50 [1] was 5.34 and the “COX2 (SI) selectivity index” value ([2]; COX-1 IC50 / COX-2 IC50) was 96. The pIC50 ([2]; COX-2, mean of two determinations, enzyme kit, read-out: COX2 IC50) was 7.32, the “Writhing Number in 20 min (Mean ± SEM)” value ([3]; acetic acid 1 h after dosing) was 27 ± 1.1 ^a and the “Analgesic Activity (% protection)” value ([3]; writhing test) was 48 ± 1.5 ^a %. For the same compound, the “% Change in Paw Height (Mean ± SEM)” value ([4]; 1 hr after carrageenan) was 0.21 ± 0.02 ^a %, the “% Change in Paw Height (Mean ± SEM)” value ([4]; 2 hr after carrageenan) was 0.16 ± 0.01 ^a % and the “Anti-Inflammatory Activity (% Inhibition of Edema)” value ([4]; 3 hr after carrageenan) was 65%. For the same compound, the “% Change in Paw Height (Mean ± SEM)” value ([4]; 3 hr after carrageenan) was 0.18 ± 0.01 ^a % and the “IL-1 β Concentration” value [5] was 33 ± 0.38 ^b Pg /mL.
